Data published in ChEMBL document CHEMBL3853266, “A complex game of hide and seek: the search for new antifungals” (Medchemcomm, 2016).
In brackets after ≈: the same amount, converted by molar mass.

Experiment: Antifungal activity against Candida albicans clinical isolate by serial twofold dilution microtitre plate method
Format: functional

SMILES: COc1ccc2oc(=O)sc2c1C(=O)/C=C/c1ccc(OCCCN(C)C)cc1
- MIC: 1 µg/mL (≈ 2.42 µM)
